Data from patent US20260015358A1, “BICYCLIC DERIVATIVES, COMPOSITIONS AND USES THEREOF” (Danatlas Pharmaceuticals Co., Ltd., priority 2023, published 2026).

How the values were obtained:
[1] = target: T1, WRN [UniPro: Q14191 (WRN_HUMAN), N500-C946] (Homo sapiens (Human), UniProt Q14191); assay: WRN unwinding assay (FORKF DNA, fluorescence); format: biochemical; conditions: Table 14
[2] = target: T1, WRN [UniPro: Q14191 (WRN_HUMAN), N500-C946]; assay: WRN ATPase assay (ADP-Glo); format: biochemical; conditions: WRN enzymatic activity assay

T1 sequence (Q14191 500-946): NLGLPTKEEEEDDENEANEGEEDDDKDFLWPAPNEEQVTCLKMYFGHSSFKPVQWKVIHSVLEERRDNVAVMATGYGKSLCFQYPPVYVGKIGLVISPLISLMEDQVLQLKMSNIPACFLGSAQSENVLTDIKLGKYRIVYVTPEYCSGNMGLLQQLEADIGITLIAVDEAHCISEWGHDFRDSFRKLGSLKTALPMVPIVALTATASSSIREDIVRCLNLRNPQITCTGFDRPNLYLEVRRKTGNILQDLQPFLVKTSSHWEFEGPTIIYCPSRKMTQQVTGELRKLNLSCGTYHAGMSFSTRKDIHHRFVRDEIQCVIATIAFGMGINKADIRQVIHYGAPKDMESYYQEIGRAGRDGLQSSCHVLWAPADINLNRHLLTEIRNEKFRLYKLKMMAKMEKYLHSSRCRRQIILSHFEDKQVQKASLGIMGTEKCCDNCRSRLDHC

Molecule `CCc1c(N2CCN(C(=O)CNC(=O)c3ccno3)CC2)c(=O)n2nc(C3=CCOCC3)nc2n1CC(=O)Nc1ccc(C(F)(F)F)cc1Cl` [Example 370, N-(2-(4-(4-(2-((2-Chloro-4-(trifluoromethyl)phenyl)amino)-2-oxoethyl)-2-(3,6-dihydro-2H-pyran-4-yl)-5-ethyl-7-oxo-4,7-dihydro-[1,2,4]triazolo[1,5-a]pyrimidin-6-yl)piperazin-1-yl)-2-oxoethyl) isoxazole-5-carboxamide] has an IC50 [1] of less than 100 nM and an IC50 [2] of less than 100 nM.
In the case of `CCc1c(N2CCN(C(=O)CNC(=O)c3ccccc3F)CC2)c(=O)n2nc(C3=CCOCC3)nc2n1CC(=O)Nc1cc(F)c(C(F)(F)F)cc1C` [Example 144, N-(2-(4-(2-(3,6-Dihydro-2H-pyran-4-yl)-5-ethyl-4-(2-((5-fluoro-2-methyl-4-(trifluoromethyl)phenyl)amino)-2-oxoethyl)-7-oxo-4,7-dihydro-[1,2,4]triazolo[1,5-a]pyrimidin-6-yl)piperazin-1-yl)-2-oxoethyl)-2-fluorobenzamide], the IC50 [1] is reported as less than 100 nM and the IC50 [2] is reported as 100 to 1000 nM.
For `CCc1c(N2CCN(C(=O)c3ncnc4c(Cl)c[nH]c34)CC2)c(=O)n2nc(C3=CCOCC3)nc2n1CC(=O)Nc1ccc(C(F)(F)F)cc1Cl` [Example 44, N-(2-Chloro-4-(trifluoromethyl)phenyl)-2-(6-(4-(7-chloro-5H-pyrrolo[3,2-d]pyrimidine-4-carbonyl)piperazin-1-yl)-2-(3,6-dihydro-2H-pyran-4-yl)-5-ethyl-7-oxo-[1,2,4]triazolo[1,5-a]pyrimidin-4(7H)-yl)acetamide], the IC50 [1] was 100 to 1000 nM and the IC50 [2] was 100 to 1000 nM.
For `CCc1c(N2CCN(C(=O)CNC(=O)c3ccccc3F)CC2)c(=O)n2nc(C3=CCOCC3)nc2n1CC(=O)Nc1ccc(C)s1` [Example 153, N-(2-(4-(2-(3,6-Dihydro-2H-pyran-4-yl)-5-ethyl-4-(2-((5-methylthiophen-2-yl)amino)-2-oxoethyl)-7-oxo-4,7-dihydro-[1,2,4]triazolo[1,5-a]pyrimidin-6-yl)piperazin-1-yl)-2-oxoethyl)-2-fluorobenzamide], the IC50 [1] was less than 100 nM and the IC50 [2] was 100 to 1000 nM.
`CCc1c(N2CCN(C(=O)c3c(O)nn4ccccc34)CC2)c(=O)n2nc(C3=CCOCC3)nc2n1CC(=O)Nc1ccc(C(F)(F)F)cc1Cl` [Example 304, N-(2-Chloro-4-(trifluoromethyl)phenyl)-2-(2-(3,6-dihydro-2H-pyran-4-yl)-5-ethyl-6-(4-(2-hydroxypyrazolo[1,5-a]pyridine-3-carbonyl)piperazin-1-yl)-7-oxo-[1,2,4]triazolo[1,5-a]pyrimidin-4(7H)-yl) acetamide] gave an IC50 [1] of less than 100 nM and an IC50 [2] of less than 100 nM.
`CCc1c(N2CCN(C(=O)CNC(=O)c3cc(F)ccc3F)CC2)c(=O)n2nc(C3=CCOCC3)nc2n1CC(=O)Nc1ccc(C(F)(F)F)cc1Cl` [Example 118, N-(2-(4-(4-(2-((2-Chloro-4-(trifluoromethyl)phenyl)amino)-2-oxoethyl)-2-(3,6-dihydro-2H-pyran-4-yl)-5-ethyl-7-oxo-4,7-dihydro-[1,2,4]triazolo[1,5-a]pyrimidin-6-yl)piperazin-1-yl)-2-oxoethyl)-2,5-difluorobenzamide] was tested, and the IC50 [1] was less than 100 nM and the IC50 [2] was less than 100 nM.
Molecule `CCc1c(N2CCN(C(=O)C(=O)Nc3nnc(Cl)s3)CC2)c(=O)n2nc(C3=CCOCC3)nc2n1CC(=O)Nc1ccc(C(F)(F)F)cc1Cl` [Example 351, N-(5-Chloro-1,3,4-thiadiazol-2-yl)-2-(4-(4-(2-((2-chloro-4-(trifluoromethyl)phenyl)amino)-2-oxoethyl)-2-(3,6-dihydro-2H-pyran-4-yl)-5-ethyl-7-oxo-4,7-dihydro-[1,2,4]triazolo[1,5-a]pyrimidin-6-yl)piperazin-1-yl)-2-oxoacetamide] has an IC50 [1] of less than 100 nM and an IC50 [2] of less than 100 nM.
Molecule `CCc1c(N2CCN(S(N)(=O)=O)CC2)c(=O)n2nc(C3=CCOCC3)nc2n1CC(=O)Nc1ccc(C(F)(F)F)cc1Cl` [Example 28, N-(2-Chloro-4-(trifluoromethyl)phenyl)-2-(2-(3,6-dihydro-2H-pyran-4-yl)-5-ethyl-7-oxo-6-(4-sulfamoylpiperazin-1-yl)-[1,2,4]triazolo[1,5-a]pyrimidin-4(7H)-yl)acetamide] has an IC50 [1] of 100 to 1000 nM and an IC50 [2] of 100 to 1000 nM.
For `CCc1c(N2CCN(C(=O)c3nnc(C(F)F)[nH]3)CC2)c(=O)n2nc(C3=CCOCC3)nc2n1CC(=O)Nc1ccc(C(F)(F)F)cc1F` [Example 310, 2-(6-(4-(5-(Difluoromethyl)-4H-1,2,4-triazole-3-carbonyl)piperazin-1-yl)-2-(3,6-dihydro-2H-pyran-4-yl)-5-ethyl-7-oxo-[1,2,4]triazolo[1,5-a]pyrimidin-4(7H)-yl)-N-(2-fluoro-4-(trifluoromethyl)phenyl)acetamide], the IC50 [1] was less than 100 nM and the IC50 [2] was less than 100 nM.
Molecule `CCc1c(N2CCN(C(=O)CNC(=O)c3cccc4nonc34)CC2)c(=O)n2nc(C3=CCOCC3)nc2n1CC(=O)Nc1ccc(C(F)(F)F)cc1Cl` [Example 383, N-(2-(4-(4-(2-((2-Chloro-4-(trifluoromethyl)phenyl)amino)-2-oxoethyl)-2-(3,6-dihydro-2H-pyran-4-yl)-5-ethyl-7-oxo-4,7-dihydro-[1,2,4]triazolo[1,5-a]pyrimidin-6-yl)piperazin-1-yl)-2-oxoethyl)benzo[c][1,2,5]oxadiazole-4-carboxamide] has an IC50 [1] of less than 100 nM and an IC50 [2] of less than 100 nM.
For `CCc1c(N2CCN(C(=O)CNC(=O)c3c(F)cccc3Cl)CC2)c(=O)n2nc(C3=CCOCC3)nc2n1CC(=O)Nc1ccc(C(F)(F)F)cc1Cl` [Example 319, 2-Chloro-N-(2-(4-(4-(2-((2-chloro-4-(trifluoromethyl)phenyl)amino)-2-oxoethyl)-2-(3,6-dihydro-2H-pyran-4-yl)-5-ethyl-7-oxo-4,7-dihydro-[1,2,4]triazolo[1,5-a]pyrimidin-6-yl)piperazin-1-yl)-2-oxoethyl)-6-fluorobenzamide], the IC50 [1] was less than 100 nM and the IC50 [2] was less than 100 nM.
`CCc1c(N2CCN(C(=O)c3cnn4cccc4c3O)CC2)c(=O)n2nc(C3=CCOCC3)nc2n1CC(=O)Nc1sc(C)cc1C` [Example 298, 2-(2-(3,6-Dihydro-2H-pyran-4-yl)-5-ethyl-6-(4-(4-hydroxypyrrolo[1,2-b]pyridazine-3-carbonyl)piperazin-1-yl)-7-oxo-[1,2,4]triazolo[1,5-a]pyrimidin-4(7H)-yl)-N-(3,5-dimethylthiophen-2-yl)acetamide] gave an IC50 [1] of less than 100 nM and an IC50 [2] of less than 100 nM.
`CCc1c(N2CCN(C(=O)CNC(=O)c3cccc(Cl)c3Cl)CC2)c(=O)n2nc(C3=CCOCC3)nc2n1CC(=O)Nc1ccc(C(F)(F)F)cc1Cl` [Example 104, 2,3-Dichloro-N-(2-(4-(4-(2-((2-chloro-4-(trifluoromethyl)phenyl)amino)-2-oxoethyl)-2-(3,6-dihydro-2H-pyran-4-yl)-5-ethyl-7-oxo-4,7-dihydro-[1,2,4]triazolo[1,5-a]pyrimidin-6-yl)piperazin-1-yl)-2-oxoethyl)benzamide] gave an IC50 [1] of less than 100 nM and an IC50 [2] of 100 to 1000 nM.
`CCCC(=O)NCC(=O)N1CCN(c2c(CC)n(CC(=O)Nc3ccc(C(F)(F)F)cc3Cl)c3nc(C4=CCOCC4)nn3c2=O)CC1` [Example 94, N-(2-(4-(4-(2-((2-Chloro-4-(trifluoromethyl)phenyl)amino)-2-oxoethyl)-2-(3,6-dihydro-2H-pyran-4-yl)-5-ethyl-7-oxo-4,7-dihydro-[1,2,4]triazolo[1,5-a]pyrimidin-6-yl)piperazin-1-yl)-2-oxoethyl)butyramide] gave an IC50 [1] of less than 100 nM and an IC50 [2] of less than 100 nM.
Work on `CCc1c(N2CCN(C(=O)C(=O)Nc3cc(C)no3)CC2)c(=O)n2nc(C3=CCOCC3)nc2n1CC(=O)Nc1ccc(C(F)(F)F)cc1Cl` [Example 348, 2-(4-(4-(2-((2-Chloro-4-(trifluoromethyl)phenyl)amino)-2-oxoethyl)-2-(3,6-dihydro-2H-pyran-4-yl)-5-ethyl-7-oxo-4,7-dihydro-[1,2,4]triazolo[1,5-a]pyrimidin-6-yl)piperazin-1-yl)-N-(3-methylisoxazol-5-yl)-2-oxoacetamide] yielded an IC50 [1] of less than 100 nM and an IC50 [2] of less than 100 nM.
`CCc1c(N2CCN(C(=O)CNC(=O)c3ccccc3F)CC2)c(=O)n2nc(C3=CCOCC3)nc2n1CC(=O)Nc1ccc(C(F)(F)F)cc1Cl` [Example 97, N-(2-(4-(4-(2-((2-Chloro-4-(trifluoromethyl)phenyl)amino)-2-oxoethyl)-2-(3,6-dihydro-2H-pyran-4-yl)-5-ethyl-7-oxo-4,7-dihydro-[1,2,4]triazolo[1,5-a]pyrimidin-6-yl)piperazin-1-yl)-2-oxoethyl)-2-fluorobenzamide] was tested, and the IC50 [1] was less than 100 nM and the IC50 [2] was less than 100 nM.
`CCc1c(N2CCN(C(=O)CNC(=O)c3cc(O)cc(F)c3)CC2)c(=O)n2nc(C3=CCOCC3)nc2n1CC(=O)Nc1ccc(C(F)(F)F)cc1Cl` [Example 291, N-(2-(4-(4-(2-((2-Chloro-4-(trifluoromethyl)phenyl)amino)-2-oxoethyl)-2-(3,6-dihydro-2H-pyran-4-yl)-5-ethyl-7-oxo-4,7-dihydro-[1,2,4]triazolo[1,5-a]pyrimidin-6-yl)piperazin-1-yl)-2-oxoethyl)-3-fluoro-5-hydroxybenzamide] showed an IC50 [1] of less than 100 nM and an IC50 [2] of less than 100 nM.
In the case of `CCc1c(N2CCN(C(=O)CNC(=O)c3ccccc3F)CC2)c(=O)n2nc(N3Cc4cnn(C)c4C3)nc2n1CC(=O)Nc1cc(C)cs1` [Example 263, N-(2-(4-(5-Ethyl-2-(1-methyl-4,6-dihydropyrrolo[3,4-c]pyrazol-5 (1H)-yl)-4-(2-((4-methylthiophen-2-yl)amino)-2-oxoethyl)-7-oxo-4,7-dihydro-[1,2,4]triazolo[1,5-a]pyrimidin-6-yl)piperazin-1-yl)-2-oxoethyl)-2-fluorobenzamide], the IC50 [1] is reported as less than 100 nM and the IC50 [2] is reported as less than 100 nM.
In the case of `CCc1c(N2CCN(C(=O)CNC(=O)c3ccno3)CC2)c(=O)n2nc(N3CCOCC3)nc2n1CC(=O)Nc1ccc(C(F)(F)F)cc1Cl` [Example 376, N-(2-(4-(4-(2-((2-Chloro-4-(trifluoromethyl)phenyl)amino)-2-oxoethyl)-5-ethyl-2-morpholino-7-oxo-4,7-dihydro-[1,2,4]triazolo[1,5-a]pyrimidin-6-yl)piperazin-1-yl)-2-oxoethyl) isoxazole-5-carboxamide], the IC50 [1] is reported as less than 100 nM and the IC50 [2] is reported as less than 100 nM.
